Consider one molecule from paper PMC12498190, “A Photocaged N‐Phosphonopiperidinone as a Selective Photo‐Cleavable DPP8/9 Inhibitor” (Chembiochem, 2025).

The target in one assay is DPP9 (Homo sapiens, UniProt Q86TI2). Description: In situ competitive ABPP in HEK293 cell culture, 100 kDa band. The format is cell-based. Details: endogenous in cells; host or cells: HEK293 (Cytion, Germany, 300192). To be noted: pre-incubation 1 h with 20 µM or 10 µM (method), 10 µM 2 for 1 h, light 5 min. On the procedure:
(§1) Figure 2 Competitive ABPP with photo‐cleavable inhibitor 5 in HEK293 cells. A) Schematic overview of a competitive ABPP experiment. A proteome is pre‐incubated with a competitor, followed by a labeling reaction with an activity‐based probe (ABP). In the case of a photocaged inhibitor, the active compound can be released via irradiation. Target proteins of the competitor cannot be bound by the ABP, resulting in an absence of the respective protein band in‐gel analysis. Created in BioRender. Najdzion, M. (2025) https://BioRender.com/84zn8cb B) Gel‐based competitive ABPP experiment in HEK293 cell lysates with the broadband serine hydrolase ABP ≡FP or the DPP8/9‐directed ABP 2 and the photocaged inhibitor 5, at the indicated concentrations, after or without prior irradiation with green light for 5 min. The corresponding pre‐incubation time for 5 was 30 min. C) Corresponding in situ competitive ABPP experiment in HEK293 cell culture, again with 10 µM 2 for 1 h. […] HEK293 cells were irradiated with a green LED lamp in the presence of 0.5% DMSO for 5 min (‘light’), and cell viability was measured after 24 h. […] For both compounds, cell viability was measured under ‘dark’ (not irradiated) and ‘light’ (irradiated for 5 min with a green LED lamp after the addition of the inhibitor) conditions. […]

The target in another assay is T1, PREP (Homo sapiens, UniProt P48147).
T1 construct: endogenous in cells; host or cells: HEK293 (Cytion, Germany, 300192)
T1 sequence (P48147 1-710): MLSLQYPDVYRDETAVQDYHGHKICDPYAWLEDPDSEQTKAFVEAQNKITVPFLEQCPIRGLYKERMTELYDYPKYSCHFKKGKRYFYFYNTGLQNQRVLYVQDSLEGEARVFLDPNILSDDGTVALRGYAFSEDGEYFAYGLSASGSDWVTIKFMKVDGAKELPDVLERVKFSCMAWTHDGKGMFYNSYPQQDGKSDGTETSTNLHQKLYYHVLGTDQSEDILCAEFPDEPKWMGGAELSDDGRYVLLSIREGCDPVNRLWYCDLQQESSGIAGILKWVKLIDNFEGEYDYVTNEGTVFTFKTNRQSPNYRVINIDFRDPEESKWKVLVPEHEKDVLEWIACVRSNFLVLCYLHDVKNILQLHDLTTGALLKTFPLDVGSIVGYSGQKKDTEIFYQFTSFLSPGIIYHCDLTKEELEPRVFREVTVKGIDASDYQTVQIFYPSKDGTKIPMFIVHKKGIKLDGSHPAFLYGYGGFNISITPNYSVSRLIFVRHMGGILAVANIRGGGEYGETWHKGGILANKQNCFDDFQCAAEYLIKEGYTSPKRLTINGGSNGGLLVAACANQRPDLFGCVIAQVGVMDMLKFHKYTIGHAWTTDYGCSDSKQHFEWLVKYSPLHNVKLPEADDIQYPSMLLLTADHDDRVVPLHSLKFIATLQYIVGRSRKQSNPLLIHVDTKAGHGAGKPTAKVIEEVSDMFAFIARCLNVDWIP
Kind of assay: In situ competitive ABPP in HEK293 cell culture, 70 kDa band. Conditions: pre-incubation 1 h with 20 µM or 10 µM (method), 10 µM 2 for 1 h, light 5 min. The format is cell-based. As for the experimental part:
as §1

DPP9, sequence (Q86TI2 whole entry): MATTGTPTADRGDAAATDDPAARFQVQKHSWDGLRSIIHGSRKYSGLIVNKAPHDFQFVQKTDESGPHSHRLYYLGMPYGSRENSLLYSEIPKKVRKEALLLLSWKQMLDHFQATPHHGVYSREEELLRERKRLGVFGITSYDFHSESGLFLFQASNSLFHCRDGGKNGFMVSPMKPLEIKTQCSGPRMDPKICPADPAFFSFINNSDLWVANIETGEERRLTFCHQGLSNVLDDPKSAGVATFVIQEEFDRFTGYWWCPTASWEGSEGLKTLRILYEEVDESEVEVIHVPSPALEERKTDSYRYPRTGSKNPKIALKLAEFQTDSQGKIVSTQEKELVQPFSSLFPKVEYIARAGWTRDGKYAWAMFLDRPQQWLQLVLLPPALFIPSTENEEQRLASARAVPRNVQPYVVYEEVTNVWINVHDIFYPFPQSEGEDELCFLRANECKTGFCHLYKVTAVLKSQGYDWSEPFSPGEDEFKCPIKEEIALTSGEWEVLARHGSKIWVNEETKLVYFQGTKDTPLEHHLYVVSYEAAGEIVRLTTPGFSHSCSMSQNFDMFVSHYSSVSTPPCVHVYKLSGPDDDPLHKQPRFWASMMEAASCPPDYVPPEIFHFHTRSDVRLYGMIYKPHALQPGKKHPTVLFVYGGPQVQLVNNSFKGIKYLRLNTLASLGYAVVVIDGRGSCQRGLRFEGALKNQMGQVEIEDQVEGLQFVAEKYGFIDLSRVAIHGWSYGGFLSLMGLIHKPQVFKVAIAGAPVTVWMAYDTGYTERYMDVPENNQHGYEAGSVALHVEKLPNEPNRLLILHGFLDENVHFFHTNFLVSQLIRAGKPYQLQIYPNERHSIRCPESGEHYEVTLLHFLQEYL

`CCCCCc1ccc(SCCP(=O)(OCC)N2CCC[C@H](NC(=O)OCC3=C4C(C)=CC(C)=[N+]4[B-](C)(C)n4c(C)cc(C)c43)C2=O)cc1` (some centres unmarked) [Compound 5]: on DPP9, the “Competition of DPP9 labeling in live cells (in words)” value is “completely inhibited”. Also, the “Competition of PREP labeling in live cells (in words)” value at PREP is given as “partially competed”.
